In one data set the target is human Fyn (Homo sapiens, UniProt P06241). The data set can be described thus: C2: Fyn kinase assay. The class given is biochemical. The following applies: 5 ng human Fyn, 1.0 μM unlabeled ATP, poly(Glu,Tyr) 4:1, 25° C., 10 minutes; read-out: C2: Fyn kinase pIC50 (converted). The method, then:
In this assay the Fyn kinase reaction is performed at 25° C. for 10 minutes in a 96-well microtiterplate. The 25 μl reaction volume contains 8 mM MOPS pH 7.0, 20 mM Mg-acetate, 0.2 mM Na2EDTA, 0.5 mM MnCl2, 1.0 μM unlabeled ATP, 0.2 μCi AT^33P, 20 ng poly(Glu,Tyr) 4:1 and 5 ng human Fyn.
The reaction is stopped by adding 5 μl of a 3% phosphoric acid solution. 5 μl of the reaction mixture is then spotted onto a Filtermat A filter (Wallac) and washed 3 times for 5 min. in 75 mM phosphoric acid and 1 time for 5 min. in methanol prior to drying and scintillation counting.

Another data set has as its target human Src (Homo sapiens, UniProt P12931). The data set can be described thus: C1: c-Src filter assay. Type of data set: biochemical. The following applies: 5 ng human Src, 1.0 μM unlabeled ATP, poly(Glu,Tyr) 4:1, 25° C., 10 minutes; read-out: C1: c-SRC filter pIC50 (converted). The method, then: The in vitro inhibition of c-Src kinase was assessed using the glass-fiber filter technology as described by Davies, S. P. et al., Biochem J. (2000), 351; p. 95-105.
In the glass-fiber filter technology the activity of the kinase is measured using an appropriate substrate that is incubated with the aforementioned kinase protein in the presence of (^33P) radiolabeled ATP. (^33P) Phosporylation of the substrate is subsequently measured as radioactivity bound on a glassfiber-filter.
In an alternative filter based assay the final kinase activity was assessed using a phosphostorage screen instead of scintilation counting.
In this assay the Src kinase reaction is performed at 25° C. for 10 minutes in a 96-well microtiterplate. The 25 μl reaction volume contains 8 mM MOPS pH 7.0, 20 mM Mg-acetate, 0.2 mM Na2EDTA, 0.5 mM MnCl2, 1.0 μM unlabeled ATP, 0.2 μCi AT^33P, 20 ng poly(Glu,Tyr) 4:1 and 5 ng human Src.
The reaction is stopped by adding 5 μl of a 3% phosphoric acid solution. 5 μl of the reaction mixture is then spotted onto a Filtermat A filter (Wallac) and washed 3 times for 5 min. in 75 mM phosphoric acid and 1 time for 5 min. in methanol prior to drying and quantification on the Typhoon (Amersham) using a phosphostorage screen.

Counter-ions that a name gives are not always drawn.

Sequence of human Src (P12931 whole entry): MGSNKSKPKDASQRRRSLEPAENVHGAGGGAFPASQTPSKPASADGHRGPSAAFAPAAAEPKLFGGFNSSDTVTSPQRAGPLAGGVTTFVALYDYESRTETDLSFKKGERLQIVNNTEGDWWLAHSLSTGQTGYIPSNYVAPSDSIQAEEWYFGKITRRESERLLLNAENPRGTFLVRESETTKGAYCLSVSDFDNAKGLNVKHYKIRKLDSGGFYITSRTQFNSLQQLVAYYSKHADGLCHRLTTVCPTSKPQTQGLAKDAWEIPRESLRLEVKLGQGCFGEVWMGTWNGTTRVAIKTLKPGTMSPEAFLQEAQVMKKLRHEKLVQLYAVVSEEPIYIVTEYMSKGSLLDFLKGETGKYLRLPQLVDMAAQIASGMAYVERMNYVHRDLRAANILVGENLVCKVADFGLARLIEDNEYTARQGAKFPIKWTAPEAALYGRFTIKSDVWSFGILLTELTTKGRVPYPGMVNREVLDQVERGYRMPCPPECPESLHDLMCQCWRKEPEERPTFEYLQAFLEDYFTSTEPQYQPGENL
Sequence of human Fyn (P06241 whole entry): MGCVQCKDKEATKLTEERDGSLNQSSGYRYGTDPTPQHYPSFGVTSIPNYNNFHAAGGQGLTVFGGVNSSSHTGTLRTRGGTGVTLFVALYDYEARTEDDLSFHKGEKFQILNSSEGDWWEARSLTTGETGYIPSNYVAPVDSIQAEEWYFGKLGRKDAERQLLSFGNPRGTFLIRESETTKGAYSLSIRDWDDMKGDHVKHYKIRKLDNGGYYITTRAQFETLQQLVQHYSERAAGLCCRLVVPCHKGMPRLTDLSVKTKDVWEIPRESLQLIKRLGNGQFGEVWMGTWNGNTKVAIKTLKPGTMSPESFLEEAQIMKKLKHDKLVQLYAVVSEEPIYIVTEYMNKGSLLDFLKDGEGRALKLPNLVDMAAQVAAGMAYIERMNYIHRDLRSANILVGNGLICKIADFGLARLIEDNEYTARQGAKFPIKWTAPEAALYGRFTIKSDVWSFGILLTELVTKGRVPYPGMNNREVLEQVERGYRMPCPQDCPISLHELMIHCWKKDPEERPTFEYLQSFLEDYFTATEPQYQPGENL

The melting point is the temperature, or range, at which the solid turns liquid. The compound `Brc1cc2c(c3c1OCO3)Nc1ncnc3cc(OCCCN4CCCC4)c(cc13)OCCCCCNC2` (as salt: HCl) [Compound B27] showed a melting point of 224 °C. Still for that read-out and setting: as for `CN1CCN(CCCOc2cc3ncnc4c3cc2OCCCCCNCc2cc(Br)c3c(c2N4)OCO3)CC1` (as salt: HCl) [Compound B28], the figure is 244 °C.

`CN1CCCCCOc2cc3c(ncnc3cc2OCCCNC(=O)OC(C)(C)C)Nc2c(ccc3c2OCO3)C1` [Compound A56] came in with a melting point of 210 to 213 °C. At human Fyn, the IC50 is below 1000 nM. Moreover, the IC50 on human Src was above 10000 nM. For `CN1CCN(CCCOc2cc3ncnc4c3cc2OCCCNCCN(C)Cc2ccc3c(c2N4)OCO3)CC1` [Compound B3], the IC50 was 11.7 nM at human Fyn and 447 nM at human Src. On the same counts, the results for `COCCOCCOc1cc2ncnc3c2cc1OCCCNCCN(C)Cc1ccc2c(c1N3)OCO2` [Compound B4] are 23.4 nM and 1480 nM. On the same counts, the results for `CN(CCO)CCCOc1cc2ncnc3c2cc1OCCCNCCN(C)Cc1ccc2c(c1N3)OCO2` [Compound B5] are 20.9 nM and 501 nM. Regarding `COc1cc2ncnc3c2cc1OCCCCCNCc1cc(Br)c2c(c1N3)OCO2` [Compound B8], the IC50 at human Fyn was 16.6 nM; on human Src, 6460 nM. For `COc1cc2ncnc3c2cc1OCCCN(C)CCN(C)Cc1ccc2c(c1N3)OCO2` [Compound B10] the same measures were 21.9 nM and 1910 nM. On the same counts, the results for `CN1CCN(CCCOc2cc3ncnc4c3cc2OCCCCCN(C)Cc2ccc3c(c2N4)OCO3)CC1` [Compound B12] are 0.275 nM and 263 nM. On the same counts, the results for `CN1CCCCCOc2cc3c(ncnc3cc2OCCCN2CCN(CCO)CC2)Nc2c(ccc3c2OCO3)C1` [Compound B13] are 3.63 nM and 295 nM. For `CN(CCO)CCCOc1cc2ncnc3c2cc1OCCCCCN(C)Cc1ccc2c(c1N3)OCO2` [Compound B15], the IC50 was 0.174 nM on human Fyn and 562 nM on human Src.

For the compound `CN1CCCCCOc2cc3c(ncnc3cc2OCCCNC(=O)CCS(C)(=O)=O)Nc2c(ccc3c2OCO3)C1` [Compound B16], the values for the IC50 on human Fyn and at human Src were below 1000 nM and 2290 nM, respectively.

As for `COc1cc2ncnc3c2cc1OCCCCCNCc1cc(Oc2ccc(C)nc2)c2c(c1N3)OCO2` [Compound B17], the results for the IC50 at human Fyn and at human Src were 40.7 nM and above 10000 nM, respectively. As to `CN1CCCCCOc2cc3c(ncnc3cc2OCCCN2CCOCC2)Nc2c(ccc3c2OCO3)C1` [Compound B18], the IC50 was below 1 nM at human Fyn and 468 nM on human Src. On the same counts, the results for `CN1CCCCCOc2cc3c(ncnc3cc2OCCCN2CCCCC2)Nc2c(ccc3c2OCO3)C1` [Compound B19] are 1.23 nM and 617 nM. For the compound `CN1CCCCCOc2cc3c(ncnc3cc2OCCCN2CCCC2)Nc2c(ccc3c2OCO3)C1` [Compound B21], the IC50 at human Fyn was 0.0575 nM; on human Src, 575 nM. With `CN1CCC(COc2cc3ncnc4c3cc2OCCCCCN(C)Cc2ccc3c(c2N4)OCO3)CC1` [Compound B22], the IC50 was above 1000 nM at human Fyn and 1290 nM on human Src.

As to `CN1CCCCCOc2cc3c(ncnc3cc2OCCCN2CCS(=O)(=O)CC2)Nc2c(ccc3c2OCO3)C1` [Compound B23], the IC50 on human Fyn is below 1000 nM; at human Src, 708 nM. For `CN1CCCCCOc2cc3c(ncnc3cc2OC[C@@H](O)CN2CCS(=O)(=O)CC2)Nc2c(ccc3c2OCO3)C1` [Compound B24] the same measures were below 1000 nM and 676 nM. `CN1CCCCCOc2cc3c(ncnc3cc2OC[C@H](O)CN2CCS(=O)(=O)CC2)Nc2c(ccc3c2OCO3)C1` [Compound B25]: the IC50 on human Fyn is 5.25 nM; on human Src, 1410 nM. Regarding `COCCOCCOc1cc2ncnc3c2cc1OCCCCCN(C)Cc1ccc2c(c1N3)OCO2` [Compound B31], the IC50 is below 1 nM at human Fyn and 2630 nM at human Src. Regarding `CN1CCNCCCOc2cc3c(ncnc3cc2OCCCN2CCOCC2)Nc2c(ccc3c2OCO3)C1` [Compound B34], the values for the IC50 on human Fyn and on human Src were below 1000 nM and 427 nM, respectively. For `COCCNCCCOc1cc2ncnc3c2cc1OCCCNCCN(C)Cc1ccc2c(c1N3)OCO2` [Compound B35] the same measures were 29.5 nM and 631 nM. On the same counts, the results for `COc1cc2ncnc3c2cc1OCCCCCN(C)Cc1cc(Br)c2c(c1N3)OCO2` [Compound B43] are 19.5 nM and above 10000 nM. As to `COc1cc2c3c(ncnc3c1)Nc1c(ccc3c1OCO3)CNCCCCCO2` [Compound B47], the melting point was 250 °C. The IC50 on human Fyn is 120 nM. On to `CN1CCCCCOc2cc3c(ncnc3cc2OCCC2CCN(C(=O)CCS(C)(=O)=O)CC2)Nc2c(ccc3c2OCO3)C1` [Compound B65], for which the IC50 on human Fyn is 5.75 nM; on human Src, 1820 nM. On the same counts, the results for `CN1CCCCCOc2cc3c(ncnc3cc2OCCCNCCS(C)(=O)=O)Nc2c(ccc3c2OCO3)C1` [Compound B68] are below 1000 nM and 692 nM. Take `CN1CCCCCOc2cc3c(ncnc3cc2OCCCNCCO)Nc2c(ccc3c2OCO3)C1` [Compound B69]: the values for the IC50 on human Fyn and at human Src were 6.17 nM and 479 nM, respectively. `COCCNCCCOc1cc2ncnc3c2cc1OCCCCCN(C)Cc1ccc2c(c1N3)OCO2` [Compound B70]: the figures for the IC50 at human Fyn and at human Src were 5.01 nM and 776 nM, respectively. Consider `CN1CCCCCOc2cc3c(ncnc3cc2OCCCNCCO)Nc2c(cc(Br)c3c2OCO3)C1` [Compound B71], for which the melting point is 241 °C.

(Values after US8492377B2, “MTKI quinazoline derivatives” (Janssen Pharmaceutica NV, priority 2006, dated 2013).)
